Assay results as given in US20250114356A1, “INDAZOLE BASED COMPOUNDS AND ASSOCIATED METHODS OF USE” (Arvinas Operations, Inc., priority 2020, published 2025).

Assays:
wildtype LRRK2 = biological target: T1, wildtype LRRK2 (Homo sapiens, UniProt Q5S007); experiment: LRRK2 degradation assay, wildtype LRRK2-HiBit expressed from plasmid in HEK293 cells; assay type: cell-based; conditions: HEK293 cells transfected with HiBit-tagged wildtype LRRK2, 24 hours compound incubation; for Dmax: read-out: **WT Dmax (%); for DC50: read-out: *WT DC50
T1 construct: expressed in transfected cells; host or cells: HEK293 (ATCC CRL-1573), transient transfection, ubiquitin promoter
T1 sequence (Q5S007 whole entry): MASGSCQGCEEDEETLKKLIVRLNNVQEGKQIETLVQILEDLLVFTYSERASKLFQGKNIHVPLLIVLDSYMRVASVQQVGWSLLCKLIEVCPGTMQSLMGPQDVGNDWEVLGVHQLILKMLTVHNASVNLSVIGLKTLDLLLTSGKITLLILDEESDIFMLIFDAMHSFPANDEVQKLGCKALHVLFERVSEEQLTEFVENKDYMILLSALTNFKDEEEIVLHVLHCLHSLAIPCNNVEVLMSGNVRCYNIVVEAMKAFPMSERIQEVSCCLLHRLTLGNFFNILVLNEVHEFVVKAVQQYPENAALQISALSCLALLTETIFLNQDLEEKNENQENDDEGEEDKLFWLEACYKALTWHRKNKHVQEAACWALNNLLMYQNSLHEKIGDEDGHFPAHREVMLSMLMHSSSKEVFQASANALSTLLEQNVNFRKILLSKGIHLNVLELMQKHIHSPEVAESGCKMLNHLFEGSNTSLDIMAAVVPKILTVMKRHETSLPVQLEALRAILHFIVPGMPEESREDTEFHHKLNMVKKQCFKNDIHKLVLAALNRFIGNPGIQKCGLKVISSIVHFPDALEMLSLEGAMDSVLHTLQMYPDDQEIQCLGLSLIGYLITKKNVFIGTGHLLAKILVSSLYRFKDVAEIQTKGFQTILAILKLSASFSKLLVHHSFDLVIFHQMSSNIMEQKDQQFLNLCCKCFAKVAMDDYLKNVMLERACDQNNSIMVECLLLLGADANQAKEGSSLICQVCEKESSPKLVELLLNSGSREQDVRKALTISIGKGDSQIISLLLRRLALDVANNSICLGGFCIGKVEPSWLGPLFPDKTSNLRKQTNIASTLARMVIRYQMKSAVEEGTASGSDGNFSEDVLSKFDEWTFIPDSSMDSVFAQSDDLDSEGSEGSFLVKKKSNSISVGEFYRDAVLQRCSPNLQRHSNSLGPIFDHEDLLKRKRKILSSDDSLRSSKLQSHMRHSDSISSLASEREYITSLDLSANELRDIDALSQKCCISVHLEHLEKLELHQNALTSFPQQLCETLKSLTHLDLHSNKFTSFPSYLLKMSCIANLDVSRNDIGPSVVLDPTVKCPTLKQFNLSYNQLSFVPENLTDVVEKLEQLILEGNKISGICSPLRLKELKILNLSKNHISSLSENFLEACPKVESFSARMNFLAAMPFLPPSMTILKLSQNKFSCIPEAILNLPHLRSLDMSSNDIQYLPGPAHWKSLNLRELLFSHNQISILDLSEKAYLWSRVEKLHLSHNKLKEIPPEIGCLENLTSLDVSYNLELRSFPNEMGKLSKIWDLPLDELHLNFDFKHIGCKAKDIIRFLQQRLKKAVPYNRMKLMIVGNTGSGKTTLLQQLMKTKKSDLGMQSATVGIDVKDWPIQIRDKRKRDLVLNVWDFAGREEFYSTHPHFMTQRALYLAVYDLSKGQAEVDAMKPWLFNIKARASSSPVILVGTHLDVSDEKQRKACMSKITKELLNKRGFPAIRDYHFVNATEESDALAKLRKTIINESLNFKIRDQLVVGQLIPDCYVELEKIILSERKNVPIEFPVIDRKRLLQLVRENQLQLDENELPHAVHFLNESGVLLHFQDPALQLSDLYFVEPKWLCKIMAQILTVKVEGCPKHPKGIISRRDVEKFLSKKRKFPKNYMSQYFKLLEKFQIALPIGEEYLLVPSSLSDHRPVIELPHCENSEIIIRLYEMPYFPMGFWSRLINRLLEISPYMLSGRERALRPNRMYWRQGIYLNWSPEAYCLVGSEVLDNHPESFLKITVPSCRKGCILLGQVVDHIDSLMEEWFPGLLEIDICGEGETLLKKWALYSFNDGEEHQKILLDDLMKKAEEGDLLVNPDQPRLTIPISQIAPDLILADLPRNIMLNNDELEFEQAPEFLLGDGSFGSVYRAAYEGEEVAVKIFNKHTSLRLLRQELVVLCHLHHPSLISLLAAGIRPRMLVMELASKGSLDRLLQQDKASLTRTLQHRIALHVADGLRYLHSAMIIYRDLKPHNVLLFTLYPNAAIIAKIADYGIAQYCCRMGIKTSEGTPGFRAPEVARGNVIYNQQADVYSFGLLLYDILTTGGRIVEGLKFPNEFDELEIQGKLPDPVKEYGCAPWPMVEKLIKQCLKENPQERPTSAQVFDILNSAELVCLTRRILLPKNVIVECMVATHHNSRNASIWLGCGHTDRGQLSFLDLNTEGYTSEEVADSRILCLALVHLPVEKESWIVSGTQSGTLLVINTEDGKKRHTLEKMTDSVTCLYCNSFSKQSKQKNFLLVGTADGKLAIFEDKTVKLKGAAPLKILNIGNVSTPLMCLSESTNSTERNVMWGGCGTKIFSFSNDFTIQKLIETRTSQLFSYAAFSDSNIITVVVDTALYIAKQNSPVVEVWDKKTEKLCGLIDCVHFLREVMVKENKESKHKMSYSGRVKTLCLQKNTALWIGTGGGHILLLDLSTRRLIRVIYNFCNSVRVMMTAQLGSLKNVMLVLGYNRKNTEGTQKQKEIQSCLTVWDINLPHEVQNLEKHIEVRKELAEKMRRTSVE
Method: (§1) The assay measures the degradation of wildtype and G2019S LRRK2 tagged with a HiBit tag on the C-terminus of the protein that was expressed from a mammalian expression vector, driven by the ubiquitin promoter in HEK293 cells. Each compound dose-response was repeated on two separate days, on three separate plates each day.
(§2) Plasmid Preparation. Transfection mixes were assembled as follows and incubated for 30 minutes at room temperature. In a 15 mL tube, 5.25 mL Opti-MEM (no additions) was mixed with 17 μL Firefly Luciferase plasmid at 1 μg/μL and 158 μL WT plasmid DNA at 1 μg/μL (175 μg total DNA) were mixed by flicking. In a new 15 mL tube, 5.25 mL OptiMEM was mixed with 17 μL Firefly Luciferase plasmid at 1 μg/μL and 158 μL G2019S plasmid DNA at 1 μg/μL (175 μg total DNA) were mixed by flicking. X-tremeGene HP was mixed thoroughly using a vortex. Next, 175 μL was added to each tube and flicked to mix. Both tubes were left to incubate for 30 minutes at room temperature.
(§3) While the transfection mixes were incubating, HEK293 cells (acquired from ATCC; ATCC CRL-1573) were harvested with trypsin. Once cells are detached, the cells were resuspended in 12 mL OptiMEM+5% FBS and transferred to a 50 mL tube. The cells were mixed well and counted. Using OptiMEM+5% FBS, the cells were diluted in two 250 mL conical tubes at 0.71×10^6 cells/mL in 70 mL. One tube was labeled “WT” and the other “G2019S”. The WT and G2019S transfection mixes were added dropwise to the corresponding 250 mL tubes. The tubes were mixed first by pipetting then by swirling. The tubes were incubated at room temperature for at least 5 minutes.
(§4) Each tube was swirled before dispensing and after every three plates. Seventy microliters of cells were dispensed with WT or G2019S DNA to seven plates each. Three plates of each were tested with compound plate one (preparation described below) and three plates of each were tested with compound plate two (preparation described below). The first plate from each set served as a “prime” plate and was not used to test compounds. Each plate was incubated in the hood for 10 minutes before placing in the 37° C. incubator for 24 hours.
(§5) Preparation of Compound and Assay Plates. Two compound plates were made using 96 well polypropylene plates. Compounds were made up at 10 mM and were diluted to 1 mM in 30 μL. Each dose response curve included a well of DMSO, as a negative control and for normalization, and a well of 0.5 μM of Exemplary Compound 4 as a positive control. In addition to seven test compounds, each plate also included a dose response of Exemplary Compound 4. The compound plates were spun down along at 1200 rpm for 2 minutes.
(§6) The two compound plates were then mixed and 2 μL was diluted in intermediate plates having 248 μL of Opti-Mem in each well. Next, 10 μL diluted compounds from the intermediate plates were added to each test plate (three WT and three G2019S plates per compound plate for a total of 12 assay plates). The plates were incubated for 24 hours at 37° C.
(§7) All assay plates and all Nano-Glo Dual-Luciferase Reporter Assay System components (except for the DLR substrate) were equilibrated to room temperature. Next, the luciferase buffer was mixed with the lyophilized amber bottle until fully dissolved, and 75 μL of the luciferase mixture was added to each well of each assay plate. The assay plates were incubated for 10 minutes at room temperature with shaking for at least 5 minutes, and then read on a plate reader.
(§8) Developing Plates and Analyzing Data. One milliliter of DLR substrate and 1 mL LgBiT Protein were added to the Stop and Glo buffer, and 75 μL of the mixture was added to each well of each plate. Optically clear seals were added to each plate and each plate was incubated for 20 minutes with shaking for at least 10 minutes, and then read on a plate reader. […]

G2019S LRRK2 = biological target: T2, G2019S LRRK2 (Homo sapiens, UniProt Q5S007, G2019S); experiment: LRRK2 degradation assay, G2019S LRRK2-HiBit expressed from plasmid in HEK293 cells; assay type: cell-based; conditions: HEK293 cells transfected with HiBit-tagged G2019S LRRK2, 24 hours compound incubation
T2 construct: expressed in transfected cells; host or cells: HEK293 (ATCC CRL-1573), transient transfection, ubiquitin promoter
T2 sequence (Q5S007 whole entry G2019S): as the sequence (Q5S007 whole entry) above, with G2019S counted along it
Method: as §1, §2, §3, §4, §5, §6, §7, §8

What does the source list for `CC(C)Oc1ccc2[nH]nc(-c3cc(N4CCO[C@@H](CCN5CCN(CC6CCN(c7ccc8c(c7)C(=O)N(C7CCC(=O)NC7=O)C8=O)CC6)CC5)C4)ncn3)c2c1` (stereo partly drawn) [compound 49, 2-(2,6-dioxopiperidin-3-yl)-5-(4-((4-(2-((S)-4-(6-(5-isopropoxy-1H-indazol-3-yl)pyrimidin-4-yl)morpholin-2-yl)ethyl)piperazin-1-yl)methyl)piperidin-1-yl)isoindoline-1,3-dione]?
Dmax (wildtype LRRK2): ≥ 70%; DC50 (wildtype LRRK2): < 10 nM; DC50 (G2019S LRRK2): < 10 nM; Dmax (G2019S LRRK2): 50 to 70%

What does the source list for `CC(C)Oc1ccc2[nH]nc(-c3cc(N4CCN(CCN5CC(CCN6CCN(c7ccc8c(c7)C(=O)N(C7CCC(=O)NC7=O)C8=O)CC6)C5)CC4)ncn3)c2c1` (centres unmarked) [compound 46, 2-(2,6-dioxopiperidin-3-yl)-5-(4-(2-(1-(2-(4-(6-(5-isopropoxy-1H-indazol-3-yl)pyrimidin-4-yl)piperazin-1-yl)ethyl)azetidin-3-yl)ethyl)piperazin-1-yl)isoindoline-1,3-dione]?
Dmax (wildtype LRRK2): 50 to 70%; DC50 (wildtype LRRK2): < 10 nM

For `C[C@@H]1CN(c2cc(-c3n[nH]c4ccc(OC5(C)CC5)cc34)ncn2)C[C@H](C)N1CCOCCOCCOCCOc1ccc2c(c1)C(=O)N(C1CCC(=O)NC1=O)C2=O` (stereo partly drawn) [compound 7, 5-{2-[2-(2-{2-[(2R,6S)-2,6-dimethyl-4-{6-[5-(1-methylcyclopropoxy)-1H-indazol-3-yl]pyrimidin-4-yl}piperazin-1-yl]ethoxy}ethoxy)ethoxy]ethoxy}-2-(2,6-dioxopiperidin-3-yl)-2,3-dihydro-1H-isoindole-1,3-dione], which Dmax (wildtype LRRK2) is on record?
The Dmax was at least 70%.

What about the DC50 (wildtype LRRK2) of the same compound?
Its DC50 is under 10 nM.

And the DC50 (G2019S LRRK2)?
The DC50 was under 10 nM.

And the Dmax (G2019S LRRK2)?
Its Dmax is 50 to 70%.

What does the source list for `CC1(Oc2ccc3[nH]nc(-c4cc(N5CCO[C@@H](CCOCCOCCOCCOc6ccc7c(c6)C(=O)N(C6CCC(=O)NC6=O)C7=O)C5)ncn4)c3c2)CC1` (stereo partly drawn) [compound 18, 2-(2,6-dioxopiperidin-3-yl)-5-{2-[2-(2-{2-[(2S)-4-{6-[5-(1-methylcyclopropoxy)-1H-indazol-3-yl]pyrimidin-4-yl}morpholin-2-yl]ethoxy}ethoxy)ethoxy]ethoxy}-2,3-dihydro-1H-isoindole-1,3-dione]?
Dmax (wildtype LRRK2): ≥ 70%; DC50 (wildtype LRRK2): < 10 nM; DC50 (G2019S LRRK2): < 10 nM; Dmax (G2019S LRRK2): ≥ 70%

Which Dmax (wildtype LRRK2) does the source give for `CC(C)Oc1ccc2[nH]nc(-c3cc(N4CCN(CCN5CCC(CN6CCN(c7ccc8c(c7)C(=O)N(C7CCC(=O)NC7=O)C8=O)CC6)CC5)[C@@H](C)C4)ncn3)c2c1` (stereo partly drawn) [compound 30, 2-(2,6-dioxopiperidin-3-yl)-5-{4-[(1-{2-[(2S)-2-methyl-4-{6-[5-(propan-2-yloxy)-1H-indazol-3-yl]pyrimidin-4-yl}piperazin-1-yl]ethyl}piperidin-4-yl)methyl]piperazin-1-yl}-2,3-dihydro-1H-isoindole-1,3-dione] here?
The Dmax was at least 70%.

And the DC50 (wildtype LRRK2)?
Its DC50 is under 10 nM.

And the DC50 (G2019S LRRK2)?
Its DC50 is under 10 nM.

And the Dmax (G2019S LRRK2)?
Its Dmax is at least 70%.

Which results are given for `C[C@H]1CN(c2cc(-c3n[nH]c4ccc(OC5(C)CC5)cc34)ncn2)CCN1CCN1CCC(CN2CCN(c3ccc4c(c3)C(=O)N(C3CCC(=O)NC3=O)C4=O)CC2)CC1` (stereo partly drawn) [compound 29, 2-(2,6-dioxopiperidin-3-yl)-5-{4-[(1-{2-[(2S)-2-methyl-4-{6-[5-(1-methylcyclopropoxy)-1H-indazol-3-yl]pyrimidin-4-yl}piperazin-1-yl]ethyl}piperidin-4-yl)methyl]piperazin-1-yl}-2,3-dihydro-1H-isoindole-1,3-dione]?
Dmax (wildtype LRRK2): ≥ 70%; DC50 (wildtype LRRK2): < 10 nM; DC50 (G2019S LRRK2): < 10 nM; Dmax (G2019S LRRK2): ≥ 70%

How did the Dmax (wildtype LRRK2) turn out when `C[C@@H]1CN(c2cc(-c3n[nH]c4ccc(OC5(C)CC5)cc34)ncn2)C[C@H](C)N1CCOCCN1CCN(c2ccc3c(c2)C(=O)N(C2CCC(=O)NC2=O)C3=O)CC1` (stereo partly drawn) [compound 21, 5-[4-(2-{2-[(2R,6S)-2,6-dimethyl-4-{6-[5-(1-methylcyclopropoxy)-1H-indazol-3-yl]pyrimidin-4-yl}piperazin-1-yl]ethoxy}ethyl)piperazin-1-yl]-2-(2,6-dioxopiperidin-3-yl)-2,3-dihydro-1H-isoindole-1,3-dione] was run?
The Dmax was at least 70%.

What about the DC50 (wildtype LRRK2) of the same compound?
The DC50 was under 10 nM.

And the DC50 (G2019S LRRK2)?
Its DC50 is under 10 nM.

What about the Dmax (G2019S LRRK2) of the same compound?
The Dmax was 50 to 70%.

`CC(C)Oc1ccc2[nH]nc(-c3cc(N4CCN(CCN5CCN(CC6CCN(c7ccc8c(c7)C(=O)N(C7CCC(=O)NC7=O)C8=O)CC6)CC5)CC4)ncn3)c2c1` (centres unmarked) [compound 39, 2-(2,6-dioxopiperidin-3-yl)-5-(4-((4-(2-(4-(6-(5-isopropoxy-1H-indazol-3-yl)pyrimidin-4-yl)piperazin-1-yl)ethyl)piperazin-1-yl)methyl)piperidin-1-yl)isoindoline-1,3-dione] was tested. Which Dmax (wildtype LRRK2) did it give?
Its Dmax is at least 70%.

What about the DC50 (wildtype LRRK2) of the same compound?
The DC50 was under 10 nM.

And the DC50 (G2019S LRRK2)?
The DC50 was 10 to 50 nM.

And the Dmax (G2019S LRRK2)?
Its Dmax is at least 70%.

With `C[C@H]1CN(c2cc(-c3n[nH]c4ccc(OC5(C)CC5)cc34)ncn2)CCN1CCOCCOCCOCCOc1ccc2c(c1)C(=O)N(C1(C)CCC(=O)NC1=O)C2=O` (stereo partly drawn) [compound 19, 2-(3-methyl-2,6-dioxopiperidin-3-yl)-5-{2-[2-(2-{2-[(2S)-2-methyl-4-{6-[5-(1-methylcyclopropoxy)-1H-indazol-3-yl]pyrimidin-4-yl}piperazin-1-yl]ethoxy}ethoxy)ethoxy]ethoxy}-2,3-dihydro-1H-isoindole-1,3-dione] as the compound, how does the Dmax (wildtype LRRK2) read?
The Dmax was under 50%.

What about the DC50 (wildtype LRRK2) of the same compound?
Its DC50 is at least 100 nM.

What about the DC50 (G2019S LRRK2) of the same compound?
Its DC50 is 10 to 50 nM.

And the Dmax (G2019S LRRK2)?
The Dmax was under 50%.

`CC(C)Oc1ccc2[nH]nc(-c3cc(N4CCO[C@@H](CN5CCN(CC6CCN(c7ccc8c(c7)C(=O)N(C7CCC(=O)NC7=O)C8=O)CC6)CC5)C4)ncn3)c2c1` (stereo partly drawn) [compound 47, 2-(2,6-dioxopiperidin-3-yl)-5-(4-((4-(((S)-4-(6-(5-isopropoxy-1H-indazol-3-yl)pyrimidin-4-yl)morpholin-2-yl)methyl)piperazin-1-yl)methyl)piperidin-1-yl)isoindoline-1,3-dione] was tested. Which Dmax (wildtype LRRK2) did it give?
The Dmax was 50 to 70%.

And the DC50 (wildtype LRRK2)?
The DC50 was under 10 nM.

And the DC50 (G2019S LRRK2)?
The DC50 was 10 to 50 nM.

What about the Dmax (G2019S LRRK2) of the same compound?
Its Dmax is 50 to 70%.

Which results are given for `CC(C)Oc1ccc2[nH]nc(-c3cc(N4CCN(CCC5CCN(CC6CCN(c7ccc8c(c7)C(=O)N(C7CCC(=O)NC7=O)C8=O)CC6)CC5)CC4)ncn3)c2c1` (centres unmarked) [compound 41, 2-(2,6-dioxopiperidin-3-yl)-5-(4-((4-(2-(4-(6-(5-isopropoxy-1H-indazol-3-yl)pyrimidin-4-yl)piperazin-1-yl)ethyl)piperidin-1-yl)methyl)piperidin-1-yl)isoindoline-1,3-dione]?
Dmax (wildtype LRRK2): 50 to 70%; DC50 (wildtype LRRK2): 10 to 50 nM; DC50 (G2019S LRRK2): 10 to 50 nM; Dmax (G2019S LRRK2): 50 to 70%

`CC(C)Oc1ccc2[nH]nc(-c3cc(N4C[C@@H](C)N(CCOCCOCCOCCOc5ccc6c(c5)C(=O)N(C5CCC(=O)NC5=O)C6=O)[C@@H](C)C4)ncn3)c2c1` (stereo partly drawn) [compound 10, 5-{2-[2-(2-{2-[(2R,6S)-2,6-dimethyl-4-{6-[5-(propan-2-yloxy)-1H-indazol-3-yl]pyrimidin-4-yl}piperazin-1-yl]ethoxy}ethoxy)ethoxy]ethoxy}-2-(2,6-dioxopiperidin-3-yl)-2,3-dihydro-1H-isoindole-1,3-dione] was tested. Which Dmax (wildtype LRRK2) did it give?
Its Dmax is 50 to 70%.

What about the DC50 (wildtype LRRK2) of the same compound?
The DC50 was 10 to 50 nM.

And the DC50 (G2019S LRRK2)?
Its DC50 is 10 to 50 nM.

What about the Dmax (G2019S LRRK2) of the same compound?
Its Dmax is 50 to 70%.

What does the source list for `CC(C)Oc1cc2c(-c3ccnc(N4CCN(CCOCCOCCOCCOc5ccc6c(c5)C(=O)N(C5CCC(=O)NC5=O)C6=O)[C@@H](C)C4)c3)n[nH]c2cc1F` (stereo partly drawn) [compound 14, 2-(2,6-dioxopiperidin-3-yl)-5-{2-[2-(2-{2-[(2S)-4-{4-[6-fluoro-5-(propan-2-yloxy)-1H-indazol-3-yl]pyridin-2-yl}-2-methylpiperazin-1-yl]ethoxy}ethoxy)ethoxy]ethoxy}-2,3-dihydro-1H-isoindole-1,3-dione]?
Dmax (wildtype LRRK2): ≥ 70%; DC50 (wildtype LRRK2): ≥ 100 nM; DC50 (G2019S LRRK2): ≥ 100 nM; Dmax (G2019S LRRK2): 50 to 70%
